Literature values in patent publication US12186420B2, “Compositions and methods of use for treatment or improvement of the condition and appearance of skin” (Quthero, Inc., priority 2020, dated 2025).

System: keratinocyte
Conditions: in the presence of reactive oxygen species

In the case of “QHREDGS [angiopoietin-1 derived peptide]”, the keratinocyte death is given as “reduce keratinocyte death”.
